Measurements published in patent publication US5500344A, “Serine protease and uses thereof” (The United States of America as represented by the …, priority 1992, dated 1996).
Starred links: 1 amine or outer side, 2 acyl side, 3 side chain; linkers in the order of their positions; H or OH if unused. Non-standard residues stand in square brackets, D forms with d. Residues, ends and D or L forms follow the SMILES beside them. *: point of attachment. Suc = O=C(CCC(=O)[*:2])[*:1]; Nle = CCCC[C@H](N)C(=O)O; Boc = CC(C)(C)OC(=O)*; SBn = c1ccc(CS*)cc1

T1: Met-ase (Rattus norvegicus, UniProt Q03238)
T1 construct: endogenous in cells; host or cells: rat RNK-16 LGL leukemia cells, cytolytic granules, HPLC fraction 104
T1 sequence (Q03238 21-258 limits assumed): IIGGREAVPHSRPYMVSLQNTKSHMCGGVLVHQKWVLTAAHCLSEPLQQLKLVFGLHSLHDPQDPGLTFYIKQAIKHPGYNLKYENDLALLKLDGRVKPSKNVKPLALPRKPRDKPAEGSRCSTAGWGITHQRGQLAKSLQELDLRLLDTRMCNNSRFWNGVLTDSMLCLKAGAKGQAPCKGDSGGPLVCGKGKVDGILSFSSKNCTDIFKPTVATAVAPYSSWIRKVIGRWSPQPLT

T2: Tryptase (Rattus norvegicus, UniProt P49864)
T2 construct: The BLT-esteraseactivity was found in fractions 49 and 56; endogenous in cells; host or cells: rat RNK-16 NK/LGL leukemia cells, cytolytic granules, HPLC fraction 56
T2 sequence (P49864 26-258): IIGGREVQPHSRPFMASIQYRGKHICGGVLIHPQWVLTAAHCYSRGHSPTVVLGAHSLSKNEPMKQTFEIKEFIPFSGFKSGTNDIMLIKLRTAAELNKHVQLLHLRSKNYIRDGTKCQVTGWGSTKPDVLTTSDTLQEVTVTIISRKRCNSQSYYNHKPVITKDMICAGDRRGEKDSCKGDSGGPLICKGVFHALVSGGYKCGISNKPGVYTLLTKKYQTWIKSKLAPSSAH

T3: Asp-ase (Rattus norvegicus, UniProt P18291)
T3 construct: Asp-ase purified by HPLC as previously described; endogenous in cells; host or cells: rat RNK LGL leukemia cells, cytolytic granules, HPLC-purified (Sayers et al. 1992)
T3 sequence (P18291 21-248): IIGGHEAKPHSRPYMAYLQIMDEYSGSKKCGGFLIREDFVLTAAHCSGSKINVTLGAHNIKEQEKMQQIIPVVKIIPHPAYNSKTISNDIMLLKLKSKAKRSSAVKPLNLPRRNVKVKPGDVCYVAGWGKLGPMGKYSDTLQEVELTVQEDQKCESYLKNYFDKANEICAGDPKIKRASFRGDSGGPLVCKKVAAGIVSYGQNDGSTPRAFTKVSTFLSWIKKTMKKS

T4: Boc-Ala-Ala-Met-SBzl
T4 sequence (peptide, N-terminal Boc; C-terminal thiobenzyl ester (SBzl)): AAM

T5: Boc-Ala-Ala-Ser-SBzl
T5 sequence (peptide, N-terminal Boc; C-terminal thiobenzyl ester (SBzl)): AAS

T6: Suc-Phe-Leu-Phe-SBzl
T6 sequence (peptide, N-terminal Suc; C-terminal thiobenzyl ester (SBzl)): FLF

T7: Boc-Ala-Ala-Asp-SBzl
T7 sequence (peptide, N-terminal Boc; C-terminal thiobenzyl ester (SBzl)): AAD

T8: Suc-Ala-Ala-Met-SBzl
T8 sequence (peptide, N-terminal Suc; C-terminal thiobenzyl ester (SBzl)): AAM

T9: Boc-Ala-Ala-Leu-SBzl
T9 sequence (peptide, N-terminal Boc; C-terminal thiobenzyl ester (SBzl)): AAL


Assays:
Met-ase = target: T1, Met-ase; assay: Initial rates of peptide thiobenzyl ester substrate hydrolysis by HPLC-purified Met-ase (HPLC fraction 104); type: biochemical; conditions: [S] 100-133 μM, pH 7.5, 25° C.
Procedure: (§1) Briefly, 50 μl of sample was added to 100 μl of 1 mM DTNB, made up in 10 mM Hepes, 1 mM CaCl2, 1 mM MgCl2, pH7.2. The reaction was initiated by the addition of 50 μl of BLT (Sigma) to give a final concentration of 500 μM. For Metase determinations, 50 μl of dilutions of the sample in 0.1M Hepes, 0.05M CaCl2, pH7.5 were added to 100 μl of 1 mM DTNB and the reaction was initiated by the addition of 50 μl of Boc-Ala-Ala-Met-S Benzyl (Bzl) to give a final concentration of 150 μM. The duration of the assay depended on color development, the rate of which was measured (0.D410) on a Dynatech MR 5000 microplate reader. Controls of sample and DTNB alone or DTNB and substrate alone were run. For more sensitive comparisons of enzymatic activities, peptide thiobenzyl ester substrates were used to measure protease activities. The chymase substrate Suc-Phe-Leu-Phe-SBzl was purchased from BACHEM Bioscience Inc., Philadelphia, Pa. […] Boc-Ala-Ala-Asp-SBzl is the substrate for Asp-ase and peptide thiobenzyl esters containing Met, Leu or Nle are substrates for Met-ase SP. […] The initial rates were measured at 324 nm using a Beckman 35 spectrophotometer when 10-25 μl of an enzyme stock solution was added to a cuvette containing 2.0 ml of buffer, 150 μl of 4,4'-dithiodipyridine and 25 μl of substrate. The same volume of substrate and 4,4'-dithiodipyridine were added to the reference cell in order to compensate for the background hydrolysis rate of the substrates. Initial rates were measured in duplicate for each substrate concentration and were averaged in each case.
(§2) 10 μl of enzyme solution was added to […]

Tryptase = target: T2, Tryptase; assay: Initial rates of peptide thiobenzyl ester substrate hydrolysis by HPLC-purified Tryptase (HPLC fraction 56); type: biochemical; conditions: [S] 100-133 μM, pH 7.5, 25° C.
Procedure: as §1, §2

Asp-ase = target: T3, Asp-ase; assay: Initial rates of peptide thiobenzyl ester substrate hydrolysis by HPLC-purified Asp-ase; type: biochemical; conditions: [S] 100-133 μM, 0.1 M Hepes, 0.01 M CaCl2, pH 7.5, 8% Me2SO, 25° C.
Procedure: as §1, §2

Boc-Ala-Ala-Met-SBzl = target: T4, Boc-Ala-Ala-Met-SBzl
Boc-Ala-Ala-Ser-SBzl = target: T5, Boc-Ala-Ala-Ser-SBzl
Suc-Phe-Leu-Phe-SBzl = target: T6, Suc-Phe-Leu-Phe-SBzl
Boc-Ala-Ala-Asp-SBzl = target: T7, Boc-Ala-Ala-Asp-SBzl
[1] = Met-ase activity of fractions on purification from RNK granules; type: biochemical, rat
Procedure: The protease of the present invention is purified to homogeneity sufficient to be sequenced and is at least about 90% pure. At this purity level, the protease has a Met-ase activity of about 156 nM/sec/μg without the intentional addition of other substances such as other proteins or carriers. The assay for measuring this activity was performed as described in the Experimental Details section. The specific activity, however, depends on the degeneracy and folding of the protease and may be as low as about 100 nM/sec/μg to as high as about 200 nM/sec/μg.
Assay of Proteases. Thiobenzylester substrates were used to measure protease activities. For monitoring enzyme activities from granules and column fractions, assays were performed at room temperature using 0.5 mM 5,5'-dithiobis-(2-nitrobenzoic acid) (DTNB) (Sigma) to detect the HSBzl leaving group (e410 =13600M-^-1 cm^-1).
BLT-esterase activity was estimated using a microtiter assay (Green, G. D. J., and Shaw, E. Anal. Biochem. 93:223-226 (1979)). Briefly, 50 μl of sample was added to 100 μl of 1 mM DTNB, made up in 10 mM Hepes, 1 mM CaCl2, 1 mM MgCl2, pH7.2. The reaction was initiated by the addition of 50 μl of BLT (Sigma) to give a final concentration of 500 μM. For Metase determinations, 50 μl of dilutions of the sample in 0.1M Hepes, 0.05M CaCl2, pH7.5 were added to 100 μl of 1 mM DTNB and the reaction was initiated by the addition of 50 μl of Boc-Ala-Ala-Met-S Benzyl (Bzl) to give a final concentration of 150 μM. The duration of the assay depended on color development, the rate of which was measured (0.D410) on a Dynatech MR 5000 microplate reader. Controls of sample and DTNB alone or DTNB and substrate alone were run. For more sensitive comparisons of enzymatic activities, peptide thiobenzyl ester substrates were used to measure protease activities. The chymase substrate Suc-Phe-Leu-Phe-SBzl was purchased from BACHEM Bioscience Inc., Philadelphia, Pa. Z-Arg-SBzl (the tryptase substrate, Kam, C-M., et al. J. Biol. Chem. 262:3444-3451 (1987)); Boc-Ala-Ala-AA-SBzl (AA=Asp, Met, Leu, Nle, or Ser) and Suc-Ala-Ala-Met-SBzl (Odake, S., et al. Biochemistry 30:2217-2227 (1991); Harper, J. W., et al. Biochemistry 23:2995-3002 (1984)) were synthesized previously. Boc-Ala-Ala-Asp-SBzl is the substrate for Asp-ase and peptide thiobenzyl esters containing Met, Leu or Nle are substrates for Met-ase SP. Assays were performed at room temperature in 0.1M, Hepes buffer, pH7.5, containing 0.01M CaCl2 and 8% Me2 SO using 0.34 mM 4,4'-dithiodipyridine (Aldrithiol-4, Aldrich Chemical Co., Milwaukee, Wis.) to detect HSBzl leaving group that reacts with 4,4'-dithiodipyridine to release thiopyridone (ε324=19800M^-1 cm^-1, Grasetti, D. R. and Murray, J. F. Arch. Biochem. Biophys. 119:41-49 (1967)). The initial rates were measured at 324 nm using a Beckman 35 spectrophotometer when 10-25 μl of an enzyme stock solution was added to a cuvette containing 2.0 ml of buffer, 150 μl of 4,4'-dithiodipyridine and 25 μl of substrate. The same volume of substrate and 4,4'-dithiodipyridine were added to the reference cell in order to compensate for the background hydrolysis rate of the substrates. Initial rates were measured in duplicate for each substrate concentration and were averaged in each case. Substrate concentrations were 100-133 μM.

Suc-Ala-Ala-Met-SBzl = target: T8, Suc-Ala-Ala-Met-SBzl
Boc-Ala-Ala-Leu-SBzl = target: T9, Boc-Ala-Ala-Leu-SBzl
[2] = 10 μl enzyme solution (HPLC fraction 104)
[3] = 25 μl enzyme solution (HPLC fraction 104)
[4] = 10 μl enzyme solution (HPLC fraction 56)

Molecule | Initial Rates, Met-ase (Met-ase; [2]) [nM/s] | Initial Rates, Met-ase (Met-ase; [3]) [nM/s] | Initial Rates, Tryptase (Tryptase; [4]) [nM/s] | Initial Rates, Asp-ase (Asp-ase; 10 μl enzyme solution) [nM/s] | other results
CSCC[C@H](NC(=O)[C@H](C)NC(=O)[C@H](C)NC(=O)OC(C)(C)C)C(=O)SCc1ccccc1 [Boc--Ala--Ala--Met--SBz1, Boc-Ala-Ala-Met-S Benzyl (Bzl)] (Boc-Ala-Ala-Met-SBn) | 4.2 | 13.7 | 0 | 0 | 
C[C@H](NC(=O)OC(C)(C)C)C(=O)N[C@@H](C)C(=O)N[C@@H](CC(=O)O)C(=O)SCc1ccccc1 [Boc--Ala--Ala--Asp--SBz1, Boc-Ala-Ala-Asp-SBzl] (Boc-Ala-Ala-Asp-SBn) | 0 |  | 0 | 12.6 | Initial Rates, Asp-ase (Asp-ase; 25 μl enzyme solution): 44.6 nM/s
CSCC[C@H](NC(=O)[C@H](C)NC(=O)[C@H](C)NC(=O)CCC(=O)O)C(=O)SCc1ccccc1 [Suc--Ala--Ala--Met--SBz1, Suc-Ala-Ala-Met-SBzl] (Suc-Ala-Ala-Met-SBn) |  | 10.1 |  |  | 
CC(C)C[C@H](NC(=O)[C@H](Cc1ccccc1)NC(=O)CCC(=O)O)C(=O)N[C@@H](Cc1ccccc1)C(=O)SCc1ccccc1 [Suc--Phe--Leu--Phe--SBz1, Suc-Phe-Leu-Phe-SBzl] (Suc-Phe-Leu-Phe-SBn) | 0 |  | 0 | 0 | 
CC(C)C[C@H](NC(=O)[C@H](C)NC(=O)[C@H](C)NC(=O)OC(C)(C)C)C(=O)SCc1ccccc1 [Boc--Ala--Ala--Leu--SBz1] (Boc-Ala-Ala-Leu-SBn) | 2.9 |  |  |  | 
C[C@H](NC(=O)OC(C)(C)C)C(=O)N[C@@H](C)C(=O)N[C@@H](CO)C(=O)SCc1ccccc1 [Boc--Ala--Ala--Ser--SBz1] (Boc-Ala-Ala-Ser-SBn) | 0 |  | 0.4 | 1.3 | Initial Rates, Asp-ase (Asp-ase; 25 μl enzyme solution): 6.7 nM/s
N=C(N)NCCC[C@H](NC(=O)OCc1ccccc1)C(=O)SCc1ccccc1 [Z--Arg--SBz1, Z-Arg-SBzl] | 0 |  | 22.7 | 0 | Initial Rates, Tryptase (Tryptase; 25 μl enzyme solution (HPLC fraction 56)): 93.4 nM/s
CCCC[C@H](NC(=O)[C@H](C)NC(=O)[C@H](C)NC(=O)OC(C)(C)C)C(=O)SCc1ccccc1 [Boc--Ala--Ala--Nle--SBz1] (Boc-Ala-Ala-[Nle]-SBn) | 3.9 | 15.2 |  |  | 
Asp-ase (RNKP-1) (from UniProt P18291) (enzyme) |  |  |  |  | Initial Rates (Boc-Ala-Ala-Met-SBzl): 0 nM/s; Initial Rates (Boc-Ala-Ala-Ser-SBzl): 1.3 nM/s; Initial Rates (Suc-Phe-Leu-Phe-SBzl): 0 nM/s; Initial Rates (Boc-Ala-Ala-Asp-SBzl): 12.6 nM/s
RNK-Met-1 (enzyme) IIGGREAVPHSRPYMVSLQNTKSHMCGGVLVHQKWVLTAAHCLSEPLQQLKLVFGLHSLHDPQDPGLTFYIKQAIKHPGYNLKYENDLALLKLDGRVKPSKNVKPLALPRKPRDKPAEGSRCSTAGWGITHQRGQLAKSLQELDLRLLDTRMCNNSRFWNGVLTDSMLCLKAGAKGQAPCKGDSGGPLVCGKGKVDGILSFSSKNCTDIFKPTVATAVAPYSSWIRKVIGRWSPQPLT |  |  |  |  | Increase in the specific activity on purification to homogeneity from the granule extract [1]: 29 fold; Rate ([1]; Met-ase rate, protein in assay 10, 3.4, 1.3, 0.1 μg by fraction): 17 nM/s; Specific Activity ([1]; Met-ase, purification step): 156.0 nM/sec/μg protein; Met-ase activity ([1]; protease at least about 90% pure, no added proteins or carriers): about 156 nM/sec/μg; Total ([1]; total Met-ase activity of the fraction): 2,807 nM/sec; Initial Rates (Boc-Ala-Ala-Met-SBzl): 4.2 nM/s; Initial Rates (Boc-Ala-Ala-Ser-SBzl): 0 nM/s; Initial Rates (Suc-Ala-Ala-Met-SBzl): 10.1 nM/s; Initial Rates (Suc-Phe-Leu-Phe-SBzl): 0 nM/s; Initial Rates (Boc-Ala-Ala-Leu-SBzl): 2.9 nM/s; Initial Rates (Boc-Ala-Ala-Nle-SBzl): 3.9 nM/s; Initial Rates (Boc-Ala-Ala-Asp-SBzl): 0 nM/s
